Reference: patent publication US12077503B2, “Substituted cyclic amides and their use as herbicides” (FMC CORPORATION, priority 2015, dated 2024)

Experiments:
Type in all cases: in vivo
[1] = test system: pigweed (Amaranthus retroflexus); experiment: Test A postemergence; settings: for Pigweed plant response rating: 125 g ai/ha, visual injury rating on 0 to 100 scale (0 no effect, 100 complete control), approx. 10 d; for Plant response rating, Pigweed: 500 g ai/ha
In short: (§1)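 Visual injury, scored on a 0–100 scale relative to untreated controls, was recorded about 10 d after application. Treatments were a preemergence soil spray over planted seeds or a postemergence spray on plants at the one- to two-leaf stage, 2 to 10 cm tall, all in loam soil–sand blend in the greenhouse.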

corn (Zea mays) = experiment: Test A postemergence; settings: for Corn plant response rating: 125 g ai/ha, visual injury rating on 0 to 100 scale (0 no effect, 100 complete control), approx. 10 d; for Plant response rating, Corn: 500 g ai/ha
In short: as §1

[2] = test system: ryegrass, Italian (Italian ryegrass, Lolium multiflorum); experiment: Test A postemergence; settings: for Ryegrass, Italian plant response rating: 125 g ai/ha, visual injury rating on 0 to 100 scale (0 no effect, 100 complete control), approx. 10 d; for Plant response rating, Ryegrass, Italian: 500 g ai/ha
In short: as §1

[3] = test system: blackgrass (Alopecurus myosuroides); experiment: Test A postemergence; settings: for Blackgrass plant response rating: 125 g ai/ha, visual injury rating on 0 to 100 scale (0 no effect, 100 complete control), approx. 10 d; for Plant response rating, Blackgrass: 500 g ai/ha
In short: as §1

[4] = test system: Galium (catchweed bedstraw, Galium aparine); experiment: Test A postemergence; settings: for Galium plant response rating: 125 g ai/ha, visual injury rating on 0 to 100 scale (0 no effect, 100 complete control), approx. 10 d; for Plant response rating, Galium: 500 g ai/ha
In short: as §1

[5] = test system: giant foxtail (Setaria faberii); experiment: Test A postemergence; settings: for Foxtail, Giant plant response rating: 125 g ai/ha, visual injury rating on 0 to 100 scale (0 no effect, 100 complete control), approx. 10 d; for Plant response rating, Foxtail, Giant: 500 g ai/ha
In short: as §1

Kochia (Kochia scoparia) [6] = experiment: Test A postemergence; settings: for Kochia plant response rating: 125 g ai/ha, visual injury rating on 0 to 100 scale (0 no effect, 100 complete control), approx. 10 d; for Plant response rating, Kochia: 500 g ai/ha
In short: as §1

[7] = test system: ragweed (common ragweed, Ambrosia elatior); experiment: Test A postemergence; settings: for Ragweed plant response rating: 125 g ai/ha, visual injury rating on 0 to 100 scale (0 no effect, 100 complete control), approx. 10 d; for Plant response rating, Ragweed: 500 g ai/ha
In short: as §1

[8] = test system: wheat (Triticum aestivum); experiment: Test A postemergence; settings: for Wheat plant response rating: 125 g ai/ha, visual injury rating on 0 to 100 scale (0 no effect, 100 complete control), approx. 10 d; for Plant response rating, Wheat: 500 g ai/ha
In short: as §1

[9] = test system: barnyardgrass (Echinochloa crus-galli); experiment: Test A postemergence; settings: for Barnyardgrass plant response rating: 125 g ai/ha, visual injury rating on 0 to 100 scale (0 no effect, 100 complete control), approx. 10 d; for Plant response rating, Barnyardgrass: 500 g ai/ha
In short: as §1

rice (Oryra sativa) = experiment: Test B flooded paddy test; settings: Flood, 250 g ai/ha; 0 to 100 scale where 0 is no effect and 100 is complete control; 13 to 15 d
In short: (§2)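 Rating scale 0–100 (visual, vs untreated controls) after a 13–15 d greenhouse period; application to the flood layer, 3 cm above soil and maintained; plants at 2-leaf stage when treated.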

[10] = test system: sedge, umbrella (small-flower umbrella sedge, Cyperus difformis); experiment: Test B flooded paddy test; settings: Flood, 250 g ai/ha; 0 to 100 scale where 0 is no effect and 100 is complete control; 13 to 15 d
In short: as §2

[11] = test system: ducksalad (Heteranthera limosa); experiment: Test B flooded paddy test; settings: Flood, 250 g ai/ha; 0 to 100 scale where 0 is no effect and 100 is complete control; 13 to 15 d
In short: as §2

[12] = test system: barnyardgrass (Echinochloa crus-galli); experiment: Test B flooded paddy test; settings: Flood, 250 g ai/ha; 0 to 100 scale where 0 is no effect and 100 is complete control; 13 to 15 d
In short: as §2

[13] = test system: pigweed (Amaranthus retroflexus); experiment: Test A preemergence; settings: for Plant response rating, Pigweed: 125 g ai/ha; for Pigweed plant response rating (0 to 100 scale, 0 is no effect, 100 is complete control): 500 g ai/ha, visual injury approx. 10 d
[14] = test system: ryegrass, Italian (Italian ryegrass, Lolium multiflorum); experiment: Test A preemergence; settings: for Plant response rating, Ryegrass, Italian: 125 g ai/ha; for Ryegrass, Italian plant response rating (0 to 100 scale, 0 is no effect, 100 is complete control): 500 g ai/ha, visual injury approx. 10 d
In short: as §1

[15] = test system: giant foxtail (Setaria faberii); experiment: Test A preemergence; settings: for Plant response rating, Foxtail, Giant: 125 g ai/ha; for Foxtail, Giant plant response rating (0 to 100 scale, 0 is no effect, 100 is complete control): 500 g ai/ha, visual injury approx. 10 d
In short: as §1

Kochia (Kochia scoparia) [16] = experiment: Test A preemergence; settings: for Plant response rating, Kochia: 125 g ai/ha; for Kochia plant response rating (0 to 100 scale, 0 is no effect, 100 is complete control): 500 g ai/ha, visual injury approx. 10 d
In short: as §1

[17] = test system: ragweed (common ragweed, Ambrosia elatior); experiment: Test A preemergence; settings: for Plant response rating, Ragweed: 125 g ai/ha; for Ragweed plant response rating (0 to 100 scale, 0 is no effect, 100 is complete control): 500 g ai/ha, visual injury approx. 10 d
In short: as §1

[18] = test system: barnyardgrass (Echinochloa crus-galli); experiment: Test A preemergence; settings: for Plant response rating, Barnyardgrass: 125 g ai/ha; for Barnyardgrass plant response rating (0 to 100 scale, 0 is no effect, 100 is complete control): 500 g ai/ha, visual injury approx. 10 d
In short: as §1

[19] = Postemergence, 0 to 100 scale where 0 is no effect and 100 is complete control
[20] = Preemergence, visual injury after approximately 10 d, 0 to 100 scale where 0 is no effect and 100 is complete control
[21] = postemergence, 0 to 100 scale, 0 no effect, 100 complete control
[22] = preemergence, 0 to 100 scale (0 no effect, 100 complete control)

Compound	Pigweed plant response rating ([1]; postemergence)	Corn plant response rating (corn (Zea mays); postemergence)	Ryegrass, Italian plant response rating ([2]; postemergence)	Blackgrass plant response rating ([3]; postemergence)	Galium plant response rating ([4]; postemergence)	Foxtail, Giant plant response rating ([5]; postemergence)	Kochia plant response rating (Kochia (Kochia scoparia) [6]; postemergence)	Ragweed plant response rating ([7]; postemergence)	Wheat plant response rating ([8]; postemergence)	Barnyardgrass plant response rating ([9]; postemergence)	Plant response rating, Rice (rice (Oryra sativa))	Plant response rating, Sedge, Umbrella [10]	Plant response rating, Ducksalad [11]	Plant response rating, Barnyardgrass [12]	Pigweed plant response rating (0 to 100 scale, 0 is no effect, 100 is complete control) ([13]; Preemergence)	Ryegrass, Italian plant response rating (0 to 100 scale, 0 is no effect, 100 is complete control) ([14]; Preemergence)	Foxtail, Giant plant response rating (0 to 100 scale, 0 is no effect, 100 is complete control) ([15]; Preemergence)	Kochia plant response rating (0 to 100 scale, 0 is no effect, 100 is complete control) (Kochia (Kochia scoparia) [16]; Preemergence)	Ragweed plant response rating (0 to 100 scale, 0 is no effect, 100 is complete control) ([17]; Preemergence)	Barnyardgrass plant response rating (0 to 100 scale, 0 is no effect, 100 is complete control) ([18]; Preemergence)	also measured
O=C1NCC(c2cccc(F)c2F)C1C(=O)Nc1ccccc1F (stereo not drawn) [Compound 494]	0	0	0	0	0	20	0	0	0	30	0	0	30	20	0	0	90	0	0	90	Plant response rating, Pigweed [1, 19]: 0; Plant response rating, Corn (corn (Zea mays); [19]): 0; Plant response rating, Ryegrass, Italian [2, 19]: 0; Plant response rating, Blackgrass [3, 19]: 0; Plant response rating, Galium [4, 19]: 0; Plant response rating, Foxtail, Giant [5, 19]: 60; Plant response rating, Kochia (Kochia (Kochia scoparia) [6]; [19]): 0; Plant response rating, Ragweed [7, 19]: 0; Plant response rating, Wheat [8, 19]: 0; Plant response rating, Barnyardgrass [9, 19]: 80; Plant response rating, Pigweed [13, 20]: 0; Plant response rating, Ryegrass, Italian [14, 20]: 0; Plant response rating, Foxtail, Giant [15, 20]: 80; Plant response rating, Kochia (Kochia (Kochia scoparia) [16]; [20]): 0; Plant response rating, Ragweed [17, 20]: 0; Plant response rating, Barnyardgrass [18, 20]: 70
CC(=O)Oc1cccc(C2CNC(=O)C2C(=O)Nc2cccc(F)c2F)c1 (stereo not drawn) [Compound 432]	0	0	0	0	0	40	0	0	0	20	15	0	0	20	0	0	0	0	0	40	Plant response rating, Pigweed [1, 21]: 0; Plant response rating, Corn (corn (Zea mays); [21]): 0; Plant response rating, Ryegrass, Italian [2, 21]: 20; Plant response rating, Blackgrass [3, 21]: 0; Plant response rating, Galium [4, 21]: 0; Plant response rating, Foxtail, Giant [5, 21]: 30; Plant response rating, Kochia (Kochia (Kochia scoparia) [6]; [21]): 0; Plant response rating, Ragweed [7, 21]: 0; Plant response rating, Wheat [8, 21]: 0; Plant response rating, Barnyardgrass [9, 21]: 30; Plant response rating, Pigweed [13, 22]: 0; Plant response rating, Ryegrass, Italian [14, 22]: 0; Plant response rating, Foxtail, Giant [15, 22]: 0; Plant response rating, Kochia (Kochia (Kochia scoparia) [16]; [22]): 0; Plant response rating, Ragweed [17, 22]: 0; Plant response rating, Barnyardgrass [18, 22]: 30
